# Experimental data as given in PubChem BioAssay (NCI).
#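 Compound exposure: 48 hours, 5 concentrations, 96-well plates. At the TGI there is no net growth.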
# Columns and labels:
# Assay in all cases: DTP human tumour cell line panel, 48 h
# [1] = tested on: NCI-H226 lung
# [2] = tested on: K-562 leukemia
# [3] = tested on: HCC-2998 colon
# [4] = tested on: SF-539 CNS
# [5] = tested on: SK-MEL-28 melanoma
# [6] = tested on: RXF 393 renal
# [7] = tested on: ACHN renal
# [8] = tested on: NCI/ADR-RES ovarian
# [9] = tested on: IGROV1 ovarian
# [10] = tested on: M14 melanoma
# [11] = tested on: PC-3 prostate
# [12] = tested on: HS 578T breast
SMILES,TGI [1],TGI [2],TGI [3],TGI [4],TGI [5],TGI [6],TGI [7],TGI [8],TGI [9],TGI [10],TGI [11],TGI [12]
CCOC(=O)Cc1nc2nn(Cc3ccccc3)cc2c(=O)[nH]1,> 100 µM,> 100 µM,> 100 µM,> 100 µM,> 100 µM,> 100 µM,> 100 µM,> 100 µM,> 100 µM,–,–,–
c1ccc2c(NCCCCCCCCNc3cccc4ccccc34)cccc2c1,> 100 µM,80.9 µM,> 100 µM,72.2 µM,40.3 µM,–,80.6 µM,–,> 100 µM,39.6 µM,–,–
OC1OC(c2ccc[nH]2)C(F)(F)C(F)(F)C1(F)F (stereo unspecified),> 100 µM,–,–,> 100 µM,> 100 µM,> 100 µM,> 100 µM,> 100 µM,> 100 µM,> 100 µM,> 100 µM,> 100 µM
Cc1ccc(-c2cnc(NC3OC(COC(=O)c4ccccc4)C(OC(=O)c4ccccc4)C(OC(=O)c4ccccc4)C3OC(=O)c3ccccc3)s2)cc1 (stereo unspecified),> 100 µM,–,–,–,> 100 µM,> 100 µM,> 100 µM,> 100 µM,> 100 µM,> 100 µM,> 100 µM,> 100 µM
CC1=C(N(C)C)C(=O)c2nc3n(c2C1=O)CCC3OC(N)=O (stereo unspecified),33.7 µM,49.8 µM,34.7 µM,31.8 µM,34.4 µM,–,30.4 µM,–,30.6 µM,27.4 µM,–,–
NC(=O)CC1(O)C=CC(=O)C=C1,> 100 µM,> 100 µM,> 100 µM,> 100 µM,> 100 µM,> 100 µM,> 100 µM,> 100 µM,> 100 µM,> 100 µM,> 100 µM,–
COC(=O)CC1CN(C(=O)OCc2ccccc2)C(C)(C)O1 (stereo unspecified),22.7 µM,> 100 µM,> 100 µM,> 100 µM,> 100 µM,> 100 µM,> 100 µM,> 100 µM,> 100 µM,> 100 µM,> 100 µM,–
CC1=C(C(=O)OC23CC4CC(CC(C4)C2)C3)C(c2ccccc2OC(F)F)C(C(=O)OC23CC4CC(CC(C4)C2)C3)=C(C)N1 (stereo unspecified),> 100 µM,–,> 100 µM,> 100 µM,> 100 µM,> 100 µM,–,> 100 µM,> 100 µM,> 100 µM,–,> 100 µM
O=c1c2cc([N+](=O)[O-])cnc2sn1-c1ccc(Oc2ccccc2)cc1,> 100 µM,–,> 100 µM,> 100 µM,> 100 µM,–,> 100 µM,> 100 µM,> 100 µM,> 100 µM,> 100 µM,96.5 µM
CCC12CC[C@H](C#N)N3CCc4c(n(c5ccccc45)C(=O)C1)C32 (stereo partly specified),–,35 µM,32.4 µM,38.2 µM,40.4 µM,29.6 µM,–,–,63.3 µM,44.9 µM,–,–
N#CC(c1ccc(Cl)cc1)c1cccc(Cl)n1 (stereo unspecified),> 100 µM,> 100 µM,> 100 µM,–,> 100 µM,–,> 100 µM,–,–,> 100 µM,–,–
CC1(C)C[C@H]2C3=CC[C@@H]4[C@@]5(C)CC[C@H](O)C(C)(C)[C@@H]5CC[C@@]4(C)[C@]3(C)C[C@@H](O)[C@@]23C[C@@H]1OC3=O,–,> 100 µM,> 100 µM,> 100 µM,> 100 µM,–,> 100 µM,> 100 µM,> 100 µM,> 100 µM,> 100 µM,> 100 µM
CC(C)(C)c1cc(N=NC(=S)NCc2ccccc2)cc(C(C)(C)C)c1O,> 100 µM,> 100 µM,> 100 µM,> 100 µM,> 100 µM,> 100 µM,> 100 µM,–,> 100 µM,> 100 µM,–,–
COC(=O)C1=C(C(=O)OC)C(C(=O)c2ccccc2)N2N=C(c3ccc(Cl)cc3)C=CC12 (stereo unspecified),66.1 µM,> 100 µM,> 100 µM,> 100 µM,> 100 µM,> 100 µM,> 100 µM,> 100 µM,–,> 100 µM,> 100 µM,–
CC(=O)CCC(=O)CC(O)(C(F)(F)F)C(F)(F)F,24.7 µM,33.4 µM,33.6 µM,31.9 µM,39.6 µM,34.5 µM,42.6 µM,58.7 µM,31.1 µM,34.9 µM,–,38.5 µM
CCOC(=O)C1=C(C)C2C3C(=O)NC(=O)C3C1(C)C1C(=O)NC(=O)C21 (stereo unspecified),> 100 µM,> 100 µM,> 100 µM,> 100 µM,> 100 µM,> 100 µM,> 100 µM,–,> 100 µM,> 100 µM,–,–
BrC12C3C4C5C(C(C43)C13OCCO3)C52 (stereo unspecified),–,> 100 µM,> 100 µM,> 100 µM,> 100 µM,> 100 µM,> 100 µM,–,> 100 µM,–,–,–
Clc1ccc2c(Cl)ncnc2c1I,93.3 µM,> 100 µM,> 100 µM,–,> 100 µM,> 100 µM,–,–,> 100 µM,> 100 µM,–,–
C#CCOC(=O)C(N)CS (stereo unspecified),> 100 µM,> 100 µM,–,–,> 100 µM,> 100 µM,> 100 µM,> 100 µM,> 100 µM,> 100 µM,> 100 µM,> 100 µM
c1cc2[se][se]c3c4cccc5[se][se]c(c(c1)c23)c54,> 100 µM,> 100 µM,–,> 100 µM,> 100 µM,> 100 µM,> 100 µM,–,> 100 µM,> 100 µM,–,–
O=C(CSc1nnc(-c2ccc(N=Cc3ccc(Cl)cc3)cc2)o1)Nc1ccccc1,> 100 µM,> 100 µM,–,–,> 100 µM,96.9 µM,> 100 µM,–,–,> 100 µM,–,–
CC(=O)/C(=C/N1C(=O)CC(=O)NC1=S)C(=O)Nc1ccccc1C,> 100 µM,–,84.7 µM,> 100 µM,> 100 µM,> 100 µM,> 100 µM,> 100 µM,> 100 µM,> 100 µM,–,–
Cc1nc2c(s/c(=N\N)n2-c2ccccc2)c(=O)[nH]1,> 100 µM,> 100 µM,> 100 µM,> 100 µM,> 100 µM,> 100 µM,> 100 µM,–,> 100 µM,> 100 µM,–,–
CC[N+](CC)(CC)Cc1cn(S(=O)(=O)c2ccccc2)c2ccccc12,> 100 µM,> 100 µM,> 100 µM,> 100 µM,> 100 µM,–,> 100 µM,–,> 100 µM,> 100 µM,–,–
